Converted amounts (≈) assume the structure as drawn.
Key:
[1] = tested on: methicillin-resistant Staphylococcus aureus (MRSA); experiment: In vitro antibacterial activity, broth microdilution (MIC90); settings: read-out: Antibacterial activity MIC90, MRSA
Text: (§1) MIC90 measurement was made according to the broth microdilution method based on the CLSI document [Clinical and Laboratory Standards Institute Document.
(§2) The test compounds in DMSO solution were further diluted 20-fold with sterile distilled water.

[2] = tested on: linezolid- and vancomycin-resistant Enterococcus faecalis (LVRE); experiment: as above; settings: read-out: Antibacterial activity MIC90, LVRE
Text: as §1, §2

| SMILES | MIC90 [1] [µg/mL] | MIC [2] [µg/mL] |
| --- | --- | --- |
| CCNC(=O)NC[C@H]1CN(c2ccc(N3C=NN(C=O)CC3)c(F)c2)C(=O)O1 [Compound 44] | 8 (≈ 20.4 µM) | 64 (≈ 163 µM) |
| O=CN1CCN(c2ccc(N3C[C@H](CNC(=O)C(F)F)OC3=O)cc2F)C=N1 [Compound 45] | 1 (≈ 2.5 µM) | 4 (≈ 10 µM) |
| O=C(NC[C@H]1CN(c2ccc(N3C=NNCC3)c(F)c2)C(=O)O1)C(F)F [Compound 46] | 2 (≈ 5.39 µM) | 16 (≈ 43.1 µM) |
| O=C(NC[C@H]1CN(c2ccc(N3C=NN(C(=O)CO)CC3)c(F)c2)C(=O)O1)C(F)F [Compound 47] | 2 (≈ 4.66 µM) | 8 (≈ 18.6 µM) |
| CCN1CCN(c2ccc(N3C[C@H](CNC(=O)C(F)F)OC3=O)cc2F)C=N1 [Compound 48] | 4 (≈ 10 µM) | 16 (≈ 40.1 µM) |
| C#CCN1CCN(c2ccc(N3C[C@H](CNC(=O)C(F)F)OC3=O)cc2F)C=N1 [Compound 49] | 1 (≈ 2.44 µM) | 8 (≈ 19.5 µM) |
| N#CCN1CCN(c2ccc(N3C[C@H](CNC(=O)C(F)F)OC3=O)cc2F)C=N1 [Compound 50] | 2 (≈ 4.87 µM) | 16 (≈ 39 µM) |
| O=CN1CCN(c2ccc(N3C[C@H](CNC(=O)C(Cl)Cl)OC3=O)cc2F)C=N1 [Compound 51] | 1 (≈ 2.31 µM) | 4 (≈ 9.25 µM) |
| O=CN1CCN(c2ccc(N3C[C@H](CNC(=O)c4ccno4)OC3=O)cc2F)C=N1 [Compound 52] | 2 (≈ 4.8 µM) | 16 (≈ 38.4 µM) |
| CCOC(=S)NC[C@H]1CN(c2ccc(N3C=NN(C=O)CC3)c(F)c2)C(=O)O1 [Compound 54] | 0.5 (≈ 1.22 µM) | 4 (≈ 9.77 µM) |
| CC(C)OC(=S)NC[C@H]1CN(c2ccc(N3C=NN(C=O)CC3)c(F)c2)C(=O)O1 [Compound 55] | 2 (≈ 4.72 µM) | 8 (≈ 18.9 µM) |
| CCNC(=S)NC[C@H]1CN(c2ccc(N3C=NN(C=O)CC3)c(F)c2)C(=O)O1 [Compound 56] | 4 (≈ 9.79 µM) | 8 (≈ 19.6 µM) |
| COC(=S)NC[C@H]1CN(c2ccc(N3C=NOCC3)c(F)c2)C(=O)O1 [Compound 57] | 0.25 (≈ 0.679 µM) | 2 (≈ 5.43 µM) |
| COC(=S)NC[C@H]1CN(c2ccc(N3C=NNCC3)c(F)c2)C(=O)O1 [Compound 58] | 0.25 (≈ 0.68 µM) | 4 (≈ 10.9 µM) |
| COC(=S)NC[C@H]1CN(c2ccc(N3C=NN(C(=O)COC(C)=O)CC3)c(F)c2)C(=O)O1 [Compound 59] | 0.5 (≈ 1.07 µM) | 2 (≈ 4.28 µM) |
| COC(=S)NC[C@H]1CN(c2ccc(N3C=NN(C)CC3)c(F)c2)C(=O)O1 [Compound 60] | 0.25 (≈ 0.655 µM) | 2 (≈ 5.24 µM) |
| CCN1CCN(c2ccc(N3C[C@H](CNC(=S)OC)OC3=O)cc2F)C=N1 [Compound 61] | 0.5 (≈ 1.26 µM) | 4 (≈ 10.1 µM) |
| C=CCN1CCN(c2ccc(N3C[C@H](CNC(=S)OC)OC3=O)cc2F)C=N1 [Compound 62] | 0.0625 (≈ 0.153 µM) | 2 (≈ 4.91 µM) |
| C#CCN1CCN(c2ccc(N3C[C@H](CNC(=S)OC)OC3=O)cc2F)C=N1 [Compound 63] | 0.5 (≈ 1.23 µM) | 4 (≈ 9.87 µM) |
| CC#CCN1CCN(c2ccc(N3C[C@H](CNC(=S)OC)OC3=O)cc2F)C=N1 [Compound 64] | 2 (≈ 4.77 µM) | 8 (≈ 19.1 µM) |

| SMILES | MIC90 [1] [µg/mL] | MIC [2] [µg/mL] |
| --- | --- | --- |
| COC(=S)NC[C@H]1CN(c2ccc(N3C=NN(CC#N)CC3)c(F)c2)C(=O)O1 [Compound 65] | 0.5 (≈ 1.23 µM) | 4 (≈ 9.84 µM) |
| C=C(Cl)CN1CCN(c2ccc(N3C[C@H](CNC(=S)OC)OC3=O)cc2F)C=N1 [Compound 66] | 0.5 (≈ 1.13 µM) | 4 (≈ 9.05 µM) |
| COC(=S)NC[C@H]1CN(c2ccc(N3C=NN(CC4CC4)CC3)c(F)c2)C(=O)O1 [Compound 67] | 0.5 (≈ 1.19 µM) | 4 (≈ 9.49 µM) |
| COC(=S)NC[C@H]1CN(c2ccc(N3C=NN(C4CCC4)CC3)c(F)c2)C(=O)O1 [Compound 68] | 0.25 (≈ 0.593 µM) | 2 (≈ 4.74 µM) |
| CCOC(=O)CN1CCN(c2ccc(N3C[C@H](CNC(=S)OC)OC3=O)cc2F)C=N1 [Compound 69] | 2 (≈ 4.41 µM) | 8 (≈ 17.6 µM) |
| COC(=S)NC[C@H]1CN(c2ccc(N3C=NN(CCO)CC3)c(F)c2)C(=O)O1 [Compound 70] | 1 (≈ 2.43 µM) | 4 (≈ 9.72 µM) |
| COC(=S)NC[C@H]1CN(c2ccc(N3C=NN(CCOC(C)=O)CC3)c(F)c2)C(=O)O1 [Compound 71] | 0.5 (≈ 1.1 µM) | 4 (≈ 8.82 µM) |
| COC(=S)NC[C@H]1CN(c2ccc(N3C=NN(C(=S)OC)CC3)c(F)c2)C(=O)O1 [Compound 72] | 0.5 (≈ 1.13 µM) | 2 (≈ 4.53 µM) |
| CC(=S)NC[C@H]1CN(c2ccc(N3C=NN(C=O)CC3)c(F)c2)C(=O)O1 [Compound 73] | 0.0625 (≈ 0.165 µM) | 2 (≈ 5.27 µM) |
| CC(=S)NC[C@H]1CN(c2ccc(N3C=NNCC3)c(F)c2)C(=O)O1 [Compound 74] | 0.25 (≈ 0.711 µM) | 2 (≈ 5.69 µM) |
| CC(=S)NC[C@H]1CN(c2ccc(N3C=NN(CC#N)CC3)c(F)c2)C(=O)O1 [Compound 75] | 0.25 (≈ 0.64 µM) | 2 (≈ 5.12 µM) |
| CC(=S)NC[C@H]1CN(c2ccc(N3C=NN(C(=O)CO)CC3)c(F)c2)C(=O)O1 [Compound 76] | 0.5 (≈ 1.22 µM) | 2 (≈ 4.88 µM) |
| O=CN1CCN(c2ccc(N3C[C@H](CNC(=S)C(F)F)OC3=O)cc2F)C=N1 [Compound 77] | 0.5 (≈ 1.2 µM) | 4 (≈ 9.63 µM) |
| C#CCN1CCN(c2ccc(N3C[C@H](CNC(=S)C(F)F)OC3=O)cc2F)C=N1 [Compound 78] | 0.5 (≈ 1.18 µM) | 4 (≈ 9.4 µM) |
| O=CN1CCN(c2ccc(N3C[C@H](COc4ccon4)OC3=O)cc2F)C=N1 [Compound 79] | 8 (≈ 20.5 µM) | > 64 |
| O=CN1CCN(c2ccc(N3C[C@H](CNc4nccs4)OC3=O)cc2F)C=N1 [Compound 80] | 2 (≈ 4.95 µM) | 16 (≈ 39.6 µM) |
| O=CN1CCN(c2ccc(N3C[C@H](Cn4ccnn4)OC3=O)cc2F)C=N1 [Compound 81] | 1 (≈ 2.68 µM) | 16 (≈ 42.9 µM) |
| O=C1O[C@@H](Cn2ccnn2)CN1c1ccc(N2C=NNCC2)c(F)c1 [Compound 82] | 2 (≈ 5.79 µM) | 32 (≈ 92.7 µM) |
| C#CCN1CCN(c2ccc(N3C[C@H](Cn4ccnn4)OC3=O)cc2F)C=N1 [Compound 84] | 0.5 (≈ 1.3 µM) | 16 (≈ 41.7 µM) |
| O=CN1CCN(c2ccc(N3C[C@H](CNc4ccon4)OC3=O)cc2F)C=N1 [Compound 85] | 0.5 (≈ 1.29 µM) | 16 (≈ 41.2 µM) |

| SMILES | MIC90 [1] [µg/mL] | MIC [2] [µg/mL] |
| --- | --- | --- |
| O=C1O[C@@H](CNc2ccon2)CN1c1ccc(N2C=NNCC2)c(F)c1 [Compound 86] | 0.5 (≈ 1.39 µM) | 8 (≈ 22.2 µM) |
| O=C(CO)N1CCN(c2ccc(N3C[C@H](CNc4ccon4)OC3=O)cc2F)C=N1 [Compound 87] | 0.5 (≈ 1.2 µM) | 8 (≈ 19.1 µM) |
| CC(=O)OCC(=O)N1CCN(c2ccc(N3C[C@H](CNc4ccon4)OC3=O)cc2F)C=N1 [Compound 88] | 0.5 (≈ 1.09 µM) | 8 (≈ 17.4 µM) |
| CCN1CCN(c2ccc(N3C[C@H](CNc4ccon4)OC3=O)cc2F)C=N1 [Compound 90] | 2 (≈ 5.15 µM) | 8 (≈ 20.6 µM) |
| C#CCN1CCN(c2ccc(N3C[C@H](CNc4ccon4)OC3=O)cc2F)C=N1 [Compound 91] | 0.5 (≈ 1.26 µM) | 8 (≈ 20.1 µM) |
| O=CN1CCN(c2ccc(N3C[C@H](CO)OC3=O)cc2F)C=N1 [Compound 92] | 1 (≈ 3.1 µM) | 64 (≈ 199 µM) |
| O=C1O[C@@H](CO)CN1c1ccc(N2C=NNCC2)c(F)c1 [Compound 93] | 1 (≈ 3.4 µM) | 32 (≈ 109 µM) |
| CC(=O)NC[C@H]1CN(c2ccc(N3C=NN(C=O)CC3)cc2)C(=O)O1 [Compound 95] | 1 (≈ 2.9 µM) | 16 (≈ 46.3 µM) |
| CC(=O)NC[C@H]1CN(c2ccc(N3C=NN(C)CC3)cc2)C(=O)O1 [Compound 96] | 2 (≈ 6.04 µM) | 16 (≈ 48.3 µM) |
| COC(=S)NC[C@H]1CN(c2ccc(N3C=NN(C=O)CC3)cc2)C(=O)O1 [Compound 97] | 0.5 (≈ 1.32 µM) | 8 (≈ 21.2 µM) |
| COC(=S)NC[C@H]1CN(c2ccc(N3C=NN(C)CC3)cc2)C(=O)O1 [Compound 98] | 1 (≈ 2.75 µM) | 16 (≈ 44 µM) |
| O=CN1CCN(c2ccc(N3C[C@H](Cn4ccnn4)OC3=O)cc2)C=N1 [Compound 99] | 2 (≈ 5.63 µM) | 32 (≈ 90.1 µM) |
| O=CN1CCN(c2ccc(N3C[C@H](CNc4ccon4)OC3=O)cc2)C=N1 [Compound 100] | 0.5 (≈ 1.35 µM) | 32 (≈ 86.4 µM) |
| CN1CCN(c2ccc(N3C[C@H](CNc4ccon4)OC3=O)cc2)C=N1 [Compound 101] | 1 (≈ 2.81 µM) | 32 (≈ 89.8 µM) |
| O=CN1CCN(c2c(F)cc(N3C[C@H](Cn4ccnn4)OC3=O)cc2F)C=N1 [Compound 103] | 0.25 (≈ 0.639 µM) | 16 (≈ 40.9 µM) |
| CN1CCN(c2c(F)cc(N3C[C@H](Cn4ccnn4)OC3=O)cc2F)C=N1 [Compound 104] | 2 (≈ 5.3 µM) | 32 (≈ 84.8 µM) |
| O=CN1CCN(c2c(F)cc(N3C[C@H](CNc4ccon4)OC3=O)cc2F)C=N1 [Compound 105] | 0.5 (≈ 1.23 µM) | 16 (≈ 39.4 µM) |
| CN1CCN(c2c(F)cc(N3C[C@H](CNc4ccon4)OC3=O)cc2F)C=N1 [Compound 106] | 0.5 (≈ 1.27 µM) | 16 (≈ 40.8 µM) |

From patent publication US8242113B2, “Oxazolidinone derivatives with cyclic amidoxime or cyclic amidrazone pharmaceutical compositions thereof” (Legochem Biosciences, Inc., priority 2008, dated 2012)
